Experimental data published in US20110189174A1, “COMPOSITIONS AND METHODS FOR TREATING, REDUCING, AMELIORATING, ALLEVIATING, OR INHIBITING PROGRESSION OF, PATHOGENIC OCULAR NEOVASCULARIZATION” (priority 2010, published 2011).

Tested on: human retinal endothelial cells (HREC)
Test: Testing 5: VEGF-induced HREC proliferation (MTS assay), echistatin and Avastin alone and in combination
Assay type: cell-based
Procedure: HREC were first cultured overnight in a 96-well plate coated with fibronectin. The next day, cells were serum-starved for 2 h before treatment. Medium containing different agents as shown in table below was pre-incubated for 1 h before being added to cells. The cells were cultured at 37° C., 5% CO2, and 95% humidity for another 3 days. After that, cell proliferation was estimated by the MTS assay. […] Normal human IgG was also added to different groups in such a way that all groups contained the same amounts of IgG protein.
A 96-well plate was coated with human fibronectin (10 μg/mL) for 5 hours. HREC were collected from flasks by EDTA-trypsin treatment and re-suspended in 10% FBS CS-C medium at 15,000 cells/mL. Cells (200 μL) were added to the plate and cultured overnight at 37° C., 5% CO2, and 95% humidity. Next day, the medium was removed and 200 μl/well serum free medium was added.
All medium solutions were incubated for 1 h at 37° C. After carefully aspirating the medium from cells, […], of the medium containing the different agents was added into appropriate wells. The cells were cultured for another 3 days.
At the end of incubation, the medium was carefully aspirated from cells and 120 μl of MTS working solution was added into all wells including blank wells (without cells). The plate was incubated at 37° C., 5% CO2, and 95% humidity for 1 hour and then absorbance was read by a plate reader at 490 nm wavelength.
Median optical density (OD) was generated from different groups. Data were expressed as mean±SEM of the OD values. Statistical analysis was performed using a one or two-way ANOVA using Box-Cox transformed data if needed, and P<0.05 was considered statistically significant. […] All the data from the individual wells were fitted to a re-parameterized four-parameter logistic equation to obtain IC50 using similar methodology as that previously described and utilizing the statistical analysis software JMP (SAS Institute, Cary, N.C.).

## bevacizumab [Avastin, reference compound]
VEGF 10 ng/mL, estimated
  IC50 ± SE of Avastin alone on inhibiting VEGF-induced proliferation of HREC: 0.021 µg/mL
Echistatin 2 nM, Avastin 0.625-10 ng/ml (significant at 10 ng/ml), VEGF 10 ng/mL
  Inhibition of VEGF-induced HREC proliferation, agent alone: dose-dependent inhibition
Echistatin 2 nM, Avastin 0.625-10 ng/ml, no VEGF
  HREC proliferation under basal conditions: no effect
